Assay results published in the supplement of paper PMC6965134.
± gives the standard deviation of the averaged measurements.

Assay: TIMS collisional cross section (CCS, N2) of the lipid ion; higher = larger ion cross section
Conditions: sample type: Liver; ionization mode: positive; one isomer drawn

SMILES | TIMS collisional cross section
CCCCC/C=C\C/C=C\C/C=C\C/C=C\CCCCCC(=O)O[C@H](CO)COP(=O)(O)OCCN [LPE 22:4] (ion (formula + adduct): [C27H48NO7P+H] 1+) | 223.9 Å²
CCCCC/C=C\C/C=C\C/C=C\C/C=C\C/C=C\CCC(=O)OC[C@@H](O)COP(=O)(O)OCCN [LPE 22:5] (ion (formula + adduct): [C27H46NO7P+H] 1+) | 221 Å²

The next lines start with the values.

TIMS collisional cross section | SMILES
223.5 Å² | CCCCCCCC/C=C\CCCCCCCCCC(=O)OC[C@@H](O)COP(=O)(O)OCCN [LPE 20:1] (ion (formula + adduct): [C25H50NO7P+H] 1+)
217.2 Å² | CCCCC/C=C\C/C=C\C/C=C\CCCCCCC(=O)OC[C@@H](O)COP(=O)(O)OCCN [LPE 20:3] (ion (formula + adduct): [C25H46NO7P+H] 1+)

Same assay, conditions: sample type: plasma; ionization mode: positive; one isomer drawn

SMILES | TIMS collisional cross section
CCCCC/C=C\C/C=C\C/C=C\CCCCCCC(=O)OC[C@@H](O)COP(=O)([O-])OCC[N+](C)(C)C [LPC 20:3_0:0] (ion (formula + adduct): [C28H52NO7P+H] 1+) | 232.43 ± 1.2 Å²
CCCCC/C=C\C/C=C\C/C=C\C/C=C\CCCC(=O)OC[C@@H](O)COP(=O)([O-])OCC[N+](C)(C)C [LPC 20:4] (ion (formula + adduct): [C28H50NO7P+H] 1+) | 231.65 ± 3.2 Å²
CCCCC/C=C\C/C=C\C/C=C\C/C=C\CCCC(=O)O[C@H](CO)COP(=O)([O-])OCC[N+](C)(C)C [LPC 20:4] (ion (formula + adduct): [C28H50NO7P+H] 1+) | 231.1 Å²
CC/C=C\C/C=C\C/C=C\C/C=C\C/C=C\CCCC(=O)OC[C@@H](O)COP(=O)([O-])OCC[N+](C)(C)C [LPC 20:5_0:0] (ion (formula + adduct): [C28H48NO7P+H] 1+) | 226.4 Å²
CCCCC/C=C\C/C=C\C/C=C\C/C=C\CCCCCC(=O)OC[C@@H](O)COP(=O)([O-])OCC[N+](C)(C)C [LPC 22:4] (ion (formula + adduct): [C30H54NO7P+H] 1+) | 237.55 ± 1.2 Å²
CCCCC/C=C\C/C=C\C/C=C\C/C=C\C/C=C\CCC(=O)OC[C@@H](O)COP(=O)([O-])OCC[N+](C)(C)C [LPC 22:5] (ion (formula + adduct): [C30H52NO7P+H] 1+) | 233.2 Å²
CC/C=C\C/C=C\C/C=C\C/C=C\C/C=C\C/C=C\CCC(=O)OC[C@@H](O)COP(=O)([O-])OCC[N+](C)(C)C [LPC 22:6] (ion (formula + adduct): [C30H50NO7P+H] 1+) | 233.5 ± 1.3 Å²
CC/C=C\C/C=C\C/C=C\C/C=C\C/C=C\C/C=C\CCC(=O)OC[C@@H](O)COP(=O)([O-])OCC[N+](C)(C)C [LPC 22:6_0:0] (ion (formula + adduct): [C30H50NO7P+H] 1+) | 233.1 Å²
CCCCCCCCCCCCCCCCOC[C@@H](O)COP(=O)([O-])OCC[N+](C)(C)C [LPC O- 16:0] (ion (formula + adduct): [C24H52NO6P+H] 1+) | 230.6 Å²
CCCC/C=C\CCCCCCCCCCOC[C@@H](O)COP(=O)([O-])OCC[N+](C)(C)C [LPC O- 16:1] (ion (formula + adduct): [C24H50NO6P+H] 1+) | 224.8 Å²
CCCCCC/C=C\CCCCCCCCCCOC[C@@H](O)COP(=O)([O-])OCC[N+](C)(C)C [LPC O- 18:1] (ion (formula + adduct): [C26H54NO6P+H] 1+) | 233.67 ± 0.64 Å²
CCCCCCCCCCCCCCCCCCCCOC[C@@H](O)COP(=O)([O-])OCC[N+](C)(C)C [LPC O- 20:0] (ion (formula + adduct): [C28H60NO6P+H] 1+) | 245.9 Å²
CCCCCCCC/C=C\CCCCCCCC(=O)OC[C@@H](O)COP(=O)(O)OCCN [LPE 18:1] (ion (formula + adduct): [C23H46NO7P+H] 1+) | 216.93 ± 1.3 Å²
CCCCC/C=C\C/C=C\CCCCCCCC(=O)O[C@H](CO)COP(=O)(O)OCCN [LPE 18:2] (ion (formula + adduct): [C23H44NO7P+H] 1+) | 211.2 ± 0.85 Å²
CCCCC/C=C\C/C=C\C/C=C\C/C=C\CCCC(=O)O[C@H](CO)COP(=O)(O)OCCN [LPE 20:4] (ion (formula + adduct): [C25H44NO7P+H] 1+) | 214.45 ± 0.92 Å²
CC/C=C\C/C=C\C/C=C\C/C=C\C/C=C\CCCC(=O)OC[C@@H](O)COP(=O)(O)OCCN [LPE 20:5] (ion (formula + adduct): [C25H42NO7P+H] 1+) | 210.7 Å²
CCCCC/C=C\C/C=C\C/C=C\C/C=C\C/C=C\CCC(=O)OC[C@@H](O)COP(=O)(O)OCCN [LPE 22:5] (ion (formula + adduct): [C27H46NO7P+H] 1+) | 220.3 ± 1.4 Å²

Now from value to molecule:

TIMS collisional cross section | SMILES
247.6 Å² | CCCCCCCCCC/C=C\CCCCCCCCCC(=O)OC[C@@H](O)COP(=O)([O-])OCC[N+](C)(C)C [LPC 22:1] (ion (formula + adduct): [C30H60NO7P+H] 1+)
246.6 Å² | CCCCCCCCCC/C=C\CCCCCCCCCC(=O)OC[C@@H](O)COP(=O)([O-])OCC[N+](C)(C)C [LPC 22:1_0:0] (ion (formula + adduct): [C30H60NO7P+H] 1+)
242 Å² | CCCCC/C=C\C/C=C\CCCCCCCCCCCC(=O)OC[C@@H](O)COP(=O)([O-])OCC[N+](C)(C)C [LPC 22:2] (ion (formula + adduct): [C30H58NO7P+H] 1+)
259.1 Å² | CCCCCCCCCCCCCCCCCCCCCCCC(=O)OC[C@@H](O)COP(=O)([O-])OCC[N+](C)(C)C [LPC 24:0] (ion (formula + adduct): [C32H66NO7P+H] 1+)
253.3 Å² | CCCCCCCC/C=C\CCCCCCCCCCCCCC(=O)OC[C@@H](O)COP(=O)([O-])OCC[N+](C)(C)C [LPC 24:1] (ion (formula + adduct): [C32H64NO7P+H] 1+)
215.7 ± 2.5 Å² | CCCCCCCCCCCCCCCC(=O)OC[C@@H](O)COP(=O)(O)OCCN [LPE 16:0] (ion (formula + adduct): [C21H44NO7P+H] 1+)
207.4 Å² | CCCCCC/C=C\CCCCCCCC(=O)OC[C@@H](O)COP(=O)(O)OCCN [LPE 16:1] (ion (formula + adduct): [C21H42NO7P+H] 1+)
221.8 Å² | CCCCCCCCCCCCCCCCCC(=O)OC[C@@H](O)COP(=O)(O)OCCN [LPE 18:0] (ion (formula + adduct): [C23H48NO7P+H] 1+)
214.1 Å² | CCCCC/C=C\C/C=C\CCCCCCCC(=O)OC[C@@H](O)COP(=O)(O)OCCN [LPE 18:2] (ion (formula + adduct): [C23H44NO7P+H] 1+)
208.3 Å² | CCCCC/C=C\C/C=C\C/C=C\CCCCC(=O)OC[C@@H](O)COP(=O)(O)OCCN [LPE 18:3] (ion (formula + adduct): [C23H42NO7P+H] 1+)
223.3 Å² | CCCCCCCC/C=C\CCCCCCCCCC(=O)OC[C@@H](O)COP(=O)(O)OCCN [LPE 20:1] (ion (formula + adduct): [C25H50NO7P+H] 1+)
217.3 Å² | CCCCC/C=C\C/C=C\C/C=C\CCCCCCC(=O)OC[C@@H](O)COP(=O)(O)OCCN [LPE 20:3] (ion (formula + adduct): [C25H46NO7P+H] 1+)
223.6 Å² | CCCCC/C=C\C/C=C\C/C=C\C/C=C\CCCCCC(=O)OC[C@@H](O)COP(=O)(O)OCCN [LPE 22:4] (ion (formula + adduct): [C27H48NO7P+H] 1+)
